The subject of test [1] is MC3T3-E1 cells. In words: Cell proliferation assay (cell counting). It is filed as cell-based, mouse. How it is done: To examine progression of cell proliferation, MC3T3-E1 cells (1×10^5/ml medium per well) were cultured using a 24-well plate in a-MEM supplemented with 10% FBS and 1% P/S at 37°C in a water-saturated atmosphere containing 5% CO2 and 95% air. The cells were cultured for 1, 2, 3, 4, or 5 days in the presence of a vehicle (1% ethanol as final concentration) or DHMBA (10 mM). In another experiment, to evaluate the effects of increased concentrations of DHMBA on MC3T3-E1 cells, the cells (1×10^5/ml per well) were cultured using a 24-well plate in DMEM (containing 10% FBS and 1% P/S). The cells were cultured for 3 days in the presence of either a reagent vehicle (1% ethanol as final concentration) or DHMBA (0.1, 1, 10, 100, or 1000 mM).
To evaluate the effects of DHMBA on cell death of osteoblasts MC3T3-E1, the cells (1×10^5/ml medium per well in a 24-well plate) were cultured in a-MEM containing 10% FBS and 1% P/S. After culturing for 3 days until reaching subconfluence, either a reagent vehicle (1% ethanol as final concentration) or DHMBA (0.1, 1, 10, 100, or 1000 mM) was added, and the cells were further cultured for 48 hours. After culture, to count the number of cells attached to each well, a […] containing 0.05% trypsin and EDTA (0.1 ml per well) was added, and then the culture plates were incubated at 37°C for 2 minutes. Subsequently, a-MEM (0.9 ml) containing 10% FBS and 1% P/S was added, and the cells were detached and mixed by pipetting. The cell suspension (0.1 ml) was mixed with 0.1 ml of 0.5% trypan blue staining solution. By this staining, […]. Viable cells were counted under a microscope (Olympus MTV-3) using a hemocytometer (Sigma-Aldrich, St. Louis, MO) and a cell counter (H-102P, Line Seiki Co., Ltd., Tokyo, Japan), and the average of two counts was calculated. Cell numbers were expressed as the number per well.

The test system of test [2] is MC3T3-E1 cells. In words: Osteoblast differentiation assay and Alizarin Red S staining (calcification). It is filed as cell-based, mouse. How it is done: MC3T3-E1 cells (10^5 cells/ml medium per well in a 12-well plate) were cultured for 3 days in a-MEM (1.0 ml per well) containing 10% FBS and 1% P/S. Thereafter, the medium was replaced, as previously described, with calcification-promoting medium, that is, a-MEM supplemented with 10% FBS, 1% P/S, L-ascorbic acid ([…]), and 4 mM b- glycerophosphoric acid. DHMBA was added at a concentration of 1 or 10 mM, and the cells were cultured for 18 days, with the medium replaced every 3 days with fresh medium. On day 18 of culture, the cells were rinsed with PBS and fixed by addition of ice-cold 75% ethanol at 4°C for 30 minutes. Then, calcium deposition was visualized by staining with Alizarin Red S (40 mM, pH 6.2). After incubation at room temperature for 30 minutes, the staining solution was removed by thorough washing with distilled water. Stained cells on the plates were photographed under a microscope (×40) (Olympus IX71, Olympus Corp., Tokyo, Japan) and imaged using ImageJ2 software. For quantification, the stained cells in each plate were solubilized by addition of 10% cetylpyridinium chloride solution, and absorbance was measured at 570 nm.

For the compound `COc1c(O)cc(CO)cc1O` [DHMBA, 3,5-dihydroxy-4-methoxybenzyl alcohol], the “proliferation of MC3T3-E1 cells” value is on record as “no significant change” in the test with MC3T3-E1 cells [1] (DHMBA 10 mM, cultured 1, 2, 3, 4, or 5 days, vs vehicle (1% ethanol), Fig. 1A) and “not changed” in the test on MC3T3-E1 cells [1] (DHMBA 0.1, 1, 10, or 100 mM, 3 days, Fig. 1B). Besides, in the test on MC3T3-E1 cells [1] (DHMBA 1000 mM (highest concentration tested), 3 days, Fig. 1B), the cell proliferation result is listed as “significant decrease”. Further, in the test with MC3T3-E1 cells [1] (TNF-a 1 or 10 ng/ml plus DHMBA 1 or 10 mM, 3 days, Fig. 3A), the “TNF-a-induced inhibition of cell proliferation” value is reported as “suppressed”. Besides, the “calcification of MC3T3-E1 cells” value in the test on MC3T3-E1 cells [2] (DHMBA 1 or 10 mM, 18 days in calcification-promoting medium, Alizarin Red, absorbance 570 nm, Figs. 2A and 2B) is recorded as “enhanced”. Also, the “TNF-a-induced suppression of calcification of osteoblasts” value in the test on MC3T3-E1 cells [2] (TNF-a 1 ng/ml plus DHMBA 1 or 10 mM, 18 days, Fig. 4) is “suppressed”.

The values are drawn from patent publication EP4778516A1, “CALCIFICATION ENHANCER FOR OSTEOBLAST MC3T3-E1 CELL” (Watanabe Oyster Laboratory Co., Ltd., priority 2023, dated 2025).
